Measured values: article PMC12066977, “Alkyl Tail Variation on Chalcone‐Based Quaternary Pyridinium Salts as Rule‐of‐Thumb for Antimicrobial Activity” (Archiv Der Pharmazie, 2025)
pIC50: −log10 of the molar value.

Experiments:
C. albicans ATCC 10231 = assay: Broth microdilution antimicrobial assay (MIC, IC50); format: cell-based; settings: Candida albicans, 24 h
Procedure: (§1) Reference strains of Staphylococcus aureus (ATCC 25923), Escherichia coli (ATCC 25922), and Candida albicans (ATCC 10231) were used in this study as microbial models. These strains were purchased from the American Type Culture Collection (ATCC); bacterial cultures were routinely grown on 5% blood agar plate, while fungal cultures on Sabouraud Dextrose Agar (Biolife […]., Milan, Italy). […] In short, microbial inocula were prepared at 0.5 McFarland in PBS and, subsequently, bacterial suspensions were diluted 1:200 in Mueller-Hinton broth (Sigma-Aldrich, St. Louis, MO, USA), while fungal inoculum was diluted 1:20 in RPMI-1640 medium (Gibco®, ThermoFisher Scientific Inc., Waltham, MA, USA), containing glucose 2%, 0.3% levo-glutamine buffered to pH 7.0 with 0.165 M 3-(N-morpholino) propanesulfonic acid (MOPS). A total of 100 μL of these microbial suspensions was introduced into a 96-well microplate and incubated with 100 μL of the compounds, two-fold serially diluted in the range of 100-0.19 μM. Positive controls (microbial suspensions in regular media), negative controls (only compounds), and solvent controls (microbial suspensions incubated with DMSO dilutions) were included in the tests. The plate was incubated at 37°C for 24 h, and subsequently the optical density at 630 nm (OD630nm) was spectrophotometrically measured. Experiments were carried out in triplicate in three biological replicates. […] Statistical analysis was carried out by using GraphPad Prism version 9.4.1 for Windows (GraphPad Software, San Diego, California USA, www.graphpad.com). ^a MIC (Minimum Inhibitory Concentration) were determined in vitro by means of a standardized microdilution assay, in compliance with the Clinical and laboratory Standard Institute (CLSI) guidelines (30). Microbial suspensions were prepared at 0.5 McFarland in PBS, then diluted in the media and transferred in a 96 micro-well plate together with the serially 2-fold dilutions of the compounds. After 24h of incubation at 37°C, microbial growths were evaluated by measuring the Optical Density at 600 nm, then percentage values were obtained as relative to the positive controls (microbial suspensions in regular media).

E. coli ATCC 25922 = assay: as above; format: cell-based; settings: Escherichia coli, 24 h
Procedure: as §1

S. aureus ATCC 25923 = assay: as above; format: cell-based; settings: Staphylococcus aureus
Procedure: as §1

[1] = Cell viability and proliferation assay (WST8/CCK-8); format: cell-based; settings: African green monkey, Vero cells (ATCC CCL-81), 48 h treatment, CCK-8; read-out: CC50 [95% CI] Vero cells
Procedure: Vero cell line (ATCC CCL‐81) was selected as a model system to investigate the overall effect of chalcones on non‐malignant mammalian cells. […] For experiments, cells were seeded into 96‐well plates at 10^4 cells/well and incubated at 37°C for 24 h. Following washes with PBS, the cell monolayer was incubated with 100 µL of medium containing the twofold serial dilutions of the compounds. Both untreated cells and cells incubated with medium containing solvent dilutions were included in each experiment as controls. The cell viability was assessed by a WST8‐based assay according to the manufacturer's instructions (CCK‐8, Cell Counting Kit‐8, Dojindo Molecular Technologies, Rockville, MD, USA). After 48 h of incubation, culture medium was removed from each well, the monolayer was washed with PBS, and 100 µL of fresh medium containing 10 µL of CCK‐8 solution was added. Following a 2 h incubation at 37°C, the OD450nm was read, and data were expressed as the percentage of cell viability relative to the untreated controls. The CC50 was obtained on the corresponding dose–response curves generated as previously reported for IC50 values. Experiments were carried out in triplicate in three biological replicates.

[2] = system: human red blood cells (hRBCs); assay: Hemolytic activity assay; format: cell-based; settings: 25 µM, 90 min, 37°C
Procedure: The hemolytic activity of some selected compounds was evaluated as the amount of hemoglobin released by the disruption of human red blood cells (hRBCs). For the experiments, fresh hRBCs were collected by centrifugation at 1500g for 10 min, washed three times with PBS, and resuspended to a final concentration of 4% w/v hRBCs in PBS. Then, 100 µL of hRBCs suspension and an equal volume of the twofold dilutions of the antimicrobial peptides were mixed in a 96‐well plate and incubated for 90 min at 37°C. After centrifugation at 1000g for 5 min, the supernatants were transferred into a clear 96‐well plate, and OD405nm was read. Untreated hRBCs (incubated with PBS) and hRBCs incubated with 1% Triton X‐100 were employed as negative and positive controls, respectively. The hemolysis percentage was calculated as [OD405nm (sample) − OD4_05nm (negative control)]/[OD405nm (positive control) − OD405nm (negative control)] × 100. Minimal hemolytic concentrations (MHCs) were defined as the compound concentration causing 10% hemolysis. Three independent experiments were performed in triplicate.

C. albicans biofilm = assay: Inhibition of biofilm formation (crystal violet staining); format: cell-based, Candida albicans; settings: 3.125 µM; 24 h, CV staining
Procedure: The ability of some selected compounds to inhibit biofilm formation was assessed by established protocols with minor modifications. In short, exponential cultures of S. aureus, E. coli, and C. albicans grown in Tryptic Soy broth (TSB, Sigma‐Aldrich, St. Louis, MO, USA) were adjusted to a final density of 10^5 CFU/mL. Aliquots of 100 µL of the microbial cultures were transferred to a 96‐well flat‐bottom polystyrene microplate, and then incubated at 37°C for 90 min to promote bacterial adhesion. Thereafter, wells were slowly rinsed with PBS to remove nonattached cells, and 100 µL of TSB supplemented with 1% glucose containing the twofold serial dilutions of the compounds was added. After incubation at 37°C for 24 h, the free‐floating cells were removed, and the biofilms were carefully washed with PBS. The biomass was quantified by a standardized crystal violet (CV) staining. Briefly, 100 µL of CV solution (0.1% in water) was added to each well containing a completely air‐dried biofilm, and incubated for 30 min at 37°C. […] Finally, the colored supernatants were transferred to a new microplate, and the OD550nm was measured. The percentage inhibition of biofilm formation in the different experimental conditions was calculated relative to the biofilm mass formed in the absence of compounds (positive control).

In the case of `C#CCOc1ccc(C(=O)/C=C/c2ccc[n+](CCCCCCCCCCCCCC)c2)c(OCC#C)c1.[Br-]` [Compound 6, (E)‐3‐{3‐[2,4‐Bis(prop‐2‐yn‐1‐yloxy)phenyl]‐3‐oxoprop‐1‐en‐1‐yl}‐1‐tetradecylpyridin‐1‐ium bromide], the pIC50 (C. albicans ATCC 10231; ATCC10231, 50% growth inhibition, read-out: IC50 [95% confidence interval] Candida albicans) was 5.88, the MIC (C. albicans ATCC 10231; ATCC10231, broth microdilution, 37°C) was 1.56 µM and the pIC50 (E. coli ATCC 25922; ATCC25922, 50% growth inhibition, read-out: IC50 [95% confidence interval] Escherichia coli) was 4.44. For the same compound, the MIC (E. coli ATCC 25922; ATCC25922, broth microdilution, 37°C) was 50 µM, the pIC50 (S. aureus ATCC 25923; ATCC25923, 50% growth inhibition, 24 h, read-out: IC50 [95% confidence interval] Staphylococcus aureus) was 5.89 and the MIC (S. aureus ATCC 25923; ATCC25923, 24 h, broth microdilution, 37°C) was 3.12 µM. For the same compound, the CC50 at 48 h [1] was 6.16 µM, the hemolytic activity [2] was 88.7% and the “reduction in C. albicans biofilm formation” value (C. albicans biofilm) was 68.3%.
